For one data set, the system named is mussel. As to the kind of experiment: Mussel plaque adhesion to coated plates (Instron tensile pull of individual plaques). The data set is classed as in vivo. On the set-up: Total Animal Removal Force: unit not given here. As to conditions: for mussel adhesion (in words): antioxidant or reducing agent in coating; for total animal removal force (in words): Tables 4A and 4B, upon addition of antioxidant, versus DBT control; for force to detach animal: estimated from number of plaques and adhesion per plaque, primer control ~5.6 N; for # of plaques (average): primer control 11.3. The text has this:
In order to obtain insights on the antifouling potential of a given coating, we would benefit from a rapid laboratory method to quantify adhesion. Coatings that show decreased adhesion in such a laboratory test can then be sent to other investigators for assays with different organisms as well as field testing. We have recently developed a method for determining the adhesion strength of mussels to surfaces. The adhesive system of mussels lends itself well to precise force measurements. Mussels are placed on a candidate coating for adhesive deposition. The area (m^2) of each plaque is determined by digital photography and use of image analysis software. Individual plaques are then pulled from the surface using clamps in an Instron materials testing system (as illustrated in FIG. 3). […] Beyond simply looking for new antifouling coatings to decrease mussel adhesion, we also take note of the adhesive failure modes on new coatings versus controls. […] Thread breakage is also possible but minimized to nearly zero with our adhesion method. When mussels adhere strongly to a given surface, more cohesive failure is often observed or a mix of both cohesive and adhesive failure. If we inhibit curing of the glue with radical inhibitors on the surface, we may find that more adhesive or cohesive failure is observed. Overall, use of this mussel adhesion assay provides quantitative data on the ability of a candidate antifouling coating to inhibit bioadhesion. Here we will use this assay on each coating. Coatings that decrease mussel adhesion substantially will be carried on to further testing. As an operative example, the animal adheres to a given surface (e.g., aluminum plate). […] The animal is removed by cutting the connecting threads at the shell line. At this point, we are left with the surface, an adhesive plaque, and the thread. Adhesion forces must be normalized for surface contact area. Complete adhesion measurement methods includes obtaining data on the plaque-surface contact area. Mussel plaques are typically not perfect circles or ovals. The small size (approximately 2 mm diameter) and irregular shape may complicate obtaining accurate areas. Prior to adhesive testing, a photograph is taken of the plaque. A Nikon (Melville, N.Y., USA) […] digital camera fitted with a Nikon 50 mm f-1.8 lens and a Kenko 12 mm extension tube is held on a small tripod while the lens is oriented directly onto the plate below. The lens is approximately 18 cm above the plates being photographed. Typical exposure settings include f=3.5, 1/15 second shutter speed, and 200 ISO. Ambient light should be sufficient to capture the images. Photographs are taken in JPEG format at maximum resolution ( 3.3 MB per image). Individual plaques are numbered using a marker prior to taking the photograph so that the numbers are included in the image. These labels allow correlation of specific plaques to tensile strength data. At the time of photographing the plaques, area standards are also photographed. The digital images of the plates can be later revisited for calculating surface area. Image analysis software counts pixels within the plaque, relative to a standard, to provide area (m^2). […] Plates bearing plaques and threads are clamped to the base of the Instronl 5544 materials testing system. A custom designed stainless steel base is fabricated for these experiments. The base is a circular platform 15 cm in diameter with a post and pinhole on the bottom, allowing bolting into the bottom mount of the Instron. Test plates with adhesive are fastened to this base with two Quick-Grip Handi Clamps (Wilmington, Ohio, USA) holding down opposite corners. The Instron is fitted with one screw-action grip (part 2710-004) on the top and a 5N load cell. Detachment force measurements begin by lowering the grips directly over an individual plaque. The thread is lifted by hand and is placed in between the grips. The grips are then tightened over the thread. […]

Data set [1] is described as follows: Water contact angle of coatings. The data set is classed as physicochemical. As to conditions: metal primer coating with BHT; metal primer coating alone approximately 106°. How it is done: In some cases added solvent helps the dissolution. We use the same solvent already in the commercial coating (e.g., xylenes or acetone). After curing is complete, the resulting coating is inspected and compared to the control of a similar coating without the adhesion inhibitor. If we observe a lack of curing, crystallization of inhibitors on the surface, lower coating modulus, or color changes the formulation may be discarded from consideration. Water contact angles are then measured for both the coatings and all controls (e.g., coating without inhibitor). Typically the coatings have very similar water contact angles as the controls (e.g., similar to within ˜5°). Large differences in contact angles will also lead to discarding a candidate antifouling formulation. A further narrowing of candidate coatings then takes place. We examine water contact angles (i.e., surface energy) of the evaporative coatings with an antioxidant versus without an added inhibitor. Any coatings with added inhibitor that changes water contact angle by more than 5° may be eliminated from further testing. […] It is envisioned that these modifications are not indicative of whether a particular reductive coating is an effective antifouling coating. […] As part of this selection process, we have approximately twenty (20) coatings to examine, into which we could place approximately eight (8) different antioxidants.

The mark [2] stands for this setting: 2.5% additive in primer, Table 4B.
[3] abbreviates: 25% additive in primer, Table 4A.
The mark [4] stands for this setting: 25% additive in primer, Table 4C, recent data with variations versus Table 4A.
[5] abbreviates: Coating: 2.5% (w/w), Table 5B, FIG. 6.
[6] abbreviates: Coating: 25% (w/w), Table 5A, FIG. 5.
The mark [7] stands for this setting: primer + 2.5% BHT (w/w) coating, Table 3.
Where [8] appears, read: primer + 25% BHT (w/w) coating, Table 3.

Structures are written as SMILES.

On to `CC(=O)C(=O)O` [pyruvic acid], for which the “mussel adhesion (in words)” value with mussel is given as “reduce mussel adhesion”.
For the compound `Cc1cc(C(C)(C)C)c(O)c(C(C)(C)C)c1` [BHT, butylated hydroxytoluene], in data set [1], the water contact angle entry is reported as “approximately 108 °”. Further, in the data set with mussel (setting [2]), the “% Adhesive Failure” value is 66.7%, the “Adhesive Failure” value came to 41.5 kPa, the “Mean Adhesion” value was determined as 41.5 kPa and the Plaques/Mussel came out at 17.4. Also, in the data set with mussel (setting [2]), the “Total Animal Removal Force” value worked out at 722. Moreover, in the data set with mussel (2.5% and 25% BHT-in-primer coatings versus primer-only controls), the “average mussel adhesion (in words)” value is “decreases significantly”. Besides, in the data set on mussel (setting [3]), the “% Adhesive Failure” value worked out at 44.7%, the “Adhesive Failure” value worked out at 37.0 kPa, the “Mean Adhesion” value worked out at 39.5 kPa and the Plaques/Mussel stood at 11.1. In addition, the “Total Animal Removal Force” value with mussel (setting [3]) worked out at 411. Moreover, in the data set on mussel (setting [4]), the Adhesion is on record as 37.08 kPa and the “Average Force” value was determined as 0.1894 N. In the data set with mussel (BHT in the coating, number of plaques combined with adhesion per plaque), the “total force needed to remove a mussel (in words)” value is on record as “drops by up to half”. In addition, in the data set with mussel (BHT-containing panels versus primer-only controls), the “adhesive produced by the animals (in words)” value is given as “produce less adhesive”. For the same compound, in the data set on mussel (setting [5]), the “Average Adhesion (kPa) with 99% CI” value is 87.82 ± 4.98 kPa. The “Average Adhesion (kPa) with 99% CI” value in the data set on mussel (setting [6]) is recorded as 90.24 ± 6.84 kPa. Also, the “total animal removal force (in words)” value with mussel is “decreases significantly”. Moreover, in the data set on mussel (setting [7]), the “force to detach animal” value is approximately 3.4 N and the “# of plaques (average)” value is listed as 9.6 plaques. In addition, the Adhesion in the data set with mussel (primer + 2.5% BHT (w/w) coating, Table 3, primer control 184 ± 68 kPa) was determined as 135 ± 58 kPa. In the data set on mussel (setting [8]), the “force to detach animal” value is approximately 2.2 N and the “# of plaques (average)” value is recorded as 5.2 plaques. The Adhesion in the data set on mussel (primer + 25% BHT (w/w) coating, Table 3, primer control 184 ± 68 kPa) is 110 ± 43 kPa.
For `CCOc1ccc2c(c1)C(C)=CC(C)(C)N2` [6-ethoxy, 6-ethoxy-1,2-dihydro-2,2,4-trimethylquinoline], in the data set on mussel (setting [2]), the “% Adhesive Failure” value worked out at 90.9%, the “Adhesive Failure” value was 33.6 kPa, the “Mean Adhesion” value is 33.9 kPa and the Plaques/Mussel amounted to 22.3. Besides, the “Total Animal Removal Force” value in the data set on mussel (setting [2]) is given as 749. In the data set on mussel (setting [3]), the “% Adhesive Failure” value worked out at 76.4%, the “Adhesive Failure” value is 33.7 kPa, the “Mean Adhesion” value is recorded as 34.6 kPa and the Plaques/Mussel worked out at 18.4. Further, the “Total Animal Removal Force” value in the data set on mussel (setting [3]) is listed as 620. In the data set on mussel (setting [4]), the Adhesion amounted to 21.23 kPa and the “Average Force” value came out at 0.0948 N. Besides, the “Average Adhesion (kPa) with 99% CI” value in the data set on mussel (setting [5]) is recorded as 82.60 ± 4.42 kPa. In addition, the “Average Adhesion (kPa) with 99% CI” value in the data set with mussel (setting [6]) came out at 58.22 ± 6.73 kPa. Also, in the data set with mussel, the “total animal removal force (in words)” value is “decreases significantly” and the “mussel adhesion (in words)” value was “reduce mussel adhesion”.
For the compound `CC(C)(C)c1cccc(O)c1C(C)(C)C` [DTBP, 2,3-di-tert-butylphenol], in the data set on mussel (setting [2]), the “% Adhesive Failure” value turned out to be 17.6%, the “Adhesive Failure” value is recorded as 56.9 kPa, the “Mean Adhesion” value is 66.5 kPa and the Plaques/Mussel is listed as 30. The “Total Animal Removal Force” value with mussel (setting [2]) is recorded as 1707. Also, in the data set with mussel (setting [3]), the “% Adhesive Failure” value worked out at 70.7%, the “Adhesive Failure” value was 40.4 kPa, the “Mean Adhesion” value amounted to 42.0 kPa and the Plaques/Mussel worked out at 16.9. For the same compound, in the data set with mussel (setting [3]), the “Total Animal Removal Force” value is 683. In the data set on mussel (setting [4]), the Adhesion is listed as 34.11 kPa and the “Average Force” value is on record as 0.1902 N. Moreover, the “Average Adhesion (kPa) with 99% CI” value in the data set on mussel (setting [5]) was 89.88 ± 8.45 kPa. Further, the “Average Adhesion (kPa) with 99% CI” value in the data set with mussel (setting [6]) was 82.63 ± 5.24 kPa. For the same compound, in the data set with mussel, the “total animal removal force (in words)” value is given as “decreases significantly” and the “mussel adhesion (in words)” value was “reduce mussel adhesion”.
For `Cc1cc(C(C)(C)C)c(C)c(C(C)(C)C)c1` [DBT, reference compound], in the data set with mussel (setting [2]), the “% Adhesive Failure” value is 7.0%, the “Adhesive Failure” value was 49.3 kPa, the “Mean Adhesion” value is recorded as 45.8 kPa and the Plaques/Mussel was determined as 24.1. The “Total Animal Removal Force” value with mussel (setting [2]) was 1430. Also, in the data set on mussel (setting [3]), the “% Adhesive Failure” value is given as 31.6%, the “Adhesive Failure” value amounted to 57.3 kPa, the “Mean Adhesion” value was found to be 53.1 kPa and the Plaques/Mussel is listed as 17.2. The “Total Animal Removal Force” value in the data set on mussel (setting [3]) was determined as 986. Besides, in the data set with mussel (setting [4]), the Adhesion came to 47.07 kPa and the “Average Force” value amounted to 0.2198 N. Besides, in the data set on mussel (setting [5]), the “Average Adhesion (kPa) with 99% CI” value turned out to be 80.31 ± 5.08 kPa. Also, the “Average Adhesion (kPa) with 99% CI” value in the data set on mussel (setting [6]) turned out to be 106.34 ± 6.74 kPa.
For `COc1ccccc1` [anisole], in the data set on mussel (setting [2]), the “% Adhesive Failure” value amounted to 21.1%, the “Adhesive Failure” value stood at 42.0 kPa, the “Mean Adhesion” value is 39.7 kPa and the Plaques/Mussel is listed as 20.1. Moreover, the “Total Animal Removal Force” value in the data set on mussel (setting [2]) is 844. Besides, in the data set with mussel (setting [3]), the “% Adhesive Failure” value was determined as 54%, the “Adhesive Failure” value stood at 56.8 kPa, the “Mean Adhesion” value is on record as 59.1 kPa and the Plaques/Mussel is reported as 17.4. In the data set on mussel (setting [3]), the “Total Animal Removal Force” value amounted to 988. For the same compound, in the data set with mussel (setting [4]), the Adhesion is reported as 33.53 kPa and the “Average Force” value is on record as 0.1686 N. Also, the “Average Adhesion (kPa) with 99% CI” value in the data set on mussel (setting [5]) stood at 90.03 ± 8.16 kPa. In addition, the “Average Adhesion (kPa) with 99% CI” value with mussel (setting [6]) is on record as 75.02 ± 5.39 kPa. Further, in the data set with mussel, the “total animal removal force (in words)” value is reported as “decreases significantly” and the “mussel adhesion (in words)” value is reported as “reduce mussel adhesion”.

The values above are taken from patent US20140076194A1, “ANTIFOULING BY ADHESION SUPPRESSION” (PURDUE RESEARCH FOUNDATION, priority 2011, published 2014).
